Reference: patent US20250208141A1, “FLUORESCENT PROBE FOR LABELING M1 MACROPHAGES, AND M1 MACROPHAGE MONITORING SYSTEM USING SAME” (INSTITUTE FOR BASIC SCIENCE, priority 2022, published 2025)

Experiments:
GLUT = GLUT inhibition test (CDr17 absorption) with cytochalasin B19; format: cell-based, mouse; conditions: inhibitor 0, 0.03, 0.1, 0.3 μM, 30 minutes, M1 macrophage
Experimental: Next, a GLUT inhibition test was performed using cytochalasin B19 which is a general GLUT inhibitor. An inhibitor at various concentrations (0, 0.03, 0.1, 0.3 μM) was cultured for 30 minutes with the M1 macrophage, cells were treated with CDr17, and the fluorescence intensity was analyzed (FIG. 3).

[1] = test system: THP-1 M0, M1, M2 macrophages; test: M1 macrophage selectivity by comparison with 2-NBDG in THP-1 macrophages; format: cell-based, human
From the text: In order to compare the selectivity of CDr17 for M1 macrophages, 2-NBDG which is a generally used fluorescent probe was applied to THP-1 which is a macrophage cell line of human origin and tested.

GLUTs = test: Glucose (D/L-glucose) competition test with CDr17 in M1 macrophages; format: cell-based, mouse; conditions: D/L-glucose 0, 20, 60 mM; CDr17 1 μM; M1 macrophages from RAW264.7
Experimental: In order to analyze a mechanism for selectivity of the compounds (probes) according to the examples, test was performed as follows, using the CDr17 compound of Example 8. First, in order to analyze whether the selectivity of CDr17 is related to GLUTs in cells, a glucose competition test was performed by the following method. As an M1 macrophage medium having no glucose differentiated in RAW264.7 cells, a medium comprising 10% Heat-Inactivated Fetal Bovine Serum (Gibco) and 1% penicillin streptomycin (WELGENE) comprising D/L-glucose at various concentrations (0 (Cont.), 20, 60 mM) were cultured for 5 minutes, and CDr17 (1 μM) was added. The nucleus was stained with Hoechst33342 (1 μg/mL), and the medium was replaced with a fresh medium after 30 minutes. Fluorescence microscopic imaging was performed with Operetta High Throughput screening with a 40× objective lens.

GLUT1 = target: T1, GLUT1 (Mus musculus, UniProt P17809); test: GLUT1 blocking with STF-31, then CDr17 fluorescence in M1 macrophages; format: cell-based; conditions: M1 macrophage of RAW264.7; 1 μM CDr17 for 30 minutes
T1 construct: endogenous in cells; host or cells: M1 macrophages of RAW264.7 cells
T1 sequence (P17809 1-492): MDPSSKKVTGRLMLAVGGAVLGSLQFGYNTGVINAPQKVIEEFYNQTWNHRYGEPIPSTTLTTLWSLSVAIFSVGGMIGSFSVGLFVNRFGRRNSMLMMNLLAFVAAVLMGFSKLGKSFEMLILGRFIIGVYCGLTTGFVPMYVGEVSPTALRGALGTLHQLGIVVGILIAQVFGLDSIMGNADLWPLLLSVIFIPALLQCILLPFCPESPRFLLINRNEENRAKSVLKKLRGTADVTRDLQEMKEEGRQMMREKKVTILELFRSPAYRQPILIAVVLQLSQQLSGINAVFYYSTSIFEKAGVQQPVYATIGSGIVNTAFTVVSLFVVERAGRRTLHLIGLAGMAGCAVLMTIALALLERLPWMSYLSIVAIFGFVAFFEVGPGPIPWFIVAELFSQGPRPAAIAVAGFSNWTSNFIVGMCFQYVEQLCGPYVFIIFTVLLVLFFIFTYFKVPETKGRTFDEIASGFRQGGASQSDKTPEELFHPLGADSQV
Experimental: Next, the function of GLUT1 was blocked using STF-3121 which is a selective inhibitor of GLUT1 in the M1 macrophage of RAW264.7, and then a treatment was performed with 1 μM CDr17 for 30 minutes to monitor the inhibition effect.

cytochalasin B19 was tested, and the “effect on absorption of CDr17 through GLUT” value (GLUT) was “blocked dose-dependently absorption of CDr17 through GLUT”.

With `O=[N+]([O-])c1ccc(N[C@H]2C(O)O[C@H](CO)[C@@H](O)[C@@H]2O)c2nonc12` (stereo partly drawn) [Example 2-NBDG, 2-NBDG] the “ability to distinguish M1 macrophage from M0 and M2 by fluorescence intensity” value ([1]; THP-1, CDr17 0.5 μM, 2-NBDG 1, 5, 10, 50, 100 μM) was “M1 and M2 macrophages were not able to be clearly distinguished at any concentration” and the “concentration needed for observation of fluorescence intensity” value ([1]; THP-1 macrophages) was 100 µM.

With `O=C[C@@H](O)[C@H](O)[C@@H](O)[C@@H](O)CO` [L-glucose] the “effect on CDr17 fluorescence intensity / absorption by the M1 macrophage” value (GLUTs) was “did not affect absorption of CDr17”.

`CC(C)(C)c1ccc(S(=O)(=O)NCc2ccc(C(=O)Nc3cccnc3)cc2)cc1` [STF-31] was tested, and the “entry of CDr17 into M1 cells” value (GLUT1) was “significantly decreased dependently on the dose”.

`O=C[C@H](O)[C@@H](O)[C@H](O)[C@H](O)CO` [D-glucose] was tested, and the “effect on CDr17 fluorescence intensity / absorption by the M1 macrophage” value (GLUTs) was “decreased dose-dependently”.
